Test results reported in patent US10932480B2, “Animal feed additive containing diurnosid and/or cestrumosid” (priority 2016, dated 2021).

Test system: broilers
Assay: Field test in broilers, diurnoside/cestrumoside plus vitamin D3 metabolites (Example 1)
Assay type: in vivo
Conditions: in combination with diurnoside or cestrumoside versus control groups with calcitriol or calcifediol alone, FIG. 1
Source text: In a commercial boiler feeding operation, five stalls each with approximate 43,000 animals were compared with regard to the incidence of osteochondrosis/dyschondroplasia in a field test. All the stalls were fed using conventional boiler fattening feed, distributed under the brand name GeflügelmastKorn® (Company: Garant Tiernahrung [Garant Animal Nutrition]), wherein no further additives were used in stall K1 (controls).
For stall K2 (control group calcitriol), a feed additive containing 20 ppm calcitriol in an amount of 150 ppm (based on feed with 88% dry solids) was mixed into the broiler fattening feed.
For stall K2 (control group calcifediol), a feed additive containing 200 ppm calcifediol in an amount of 150 ppm (based on feed with 88% dry solids) was mixed into the broiler fattening feed.
For stall V1 (experimental group with diurnoside plus calcitriol), the feed additive according to the invention, containing 100 ppm diurnoside and 10 ppm calcitriol was mixed into the boiler fattening feed in an amount of 150 ppm (based on feed with 88% dry solids).
For the stall V2 (experimental group with cestrumoside plus calcifediol), the feed additive according to the invention, containing 20 ppm cestrumoside and 100 ppm calcifediol in an amount of 150 ppm (based on feed with 88% dry solids) was mixed into the broiler fattening feed. […]

| SMILES | effective doses for calcitriol and calcifediol |
| --- | --- |
| C=C1CC[C@H](O)C/C1=C/C=C1\CCC[C@]2(C)[C@@H]([C@H](C)CCCC(C)(C)O)CC[C@@H]12 [calcifediol] | reduced by one-half |
| C=C1/C(=C\C=C2/CCC[C@]3(C)[C@@H]([C@H](C)CCCC(C)(C)O)CC[C@@H]23)C[C@@H](O)C[C@@H]1O [calcitriol] | reduced by one-half |
